Assay results from publication PMC10744608, “Simplified Synthesis of Renieramycin T Derivatives to Target Cancer Stem Cells via β-Catenin Proteasomal Degradation in Human Lung Cancer” (Marine Drugs, 2023).

Key:
Type in all cases: cell-based, human
H292 cells [1] = assay: Western blot of apoptosis-related proteins (cleaved PARP, Bcl-2, Bax)
Procedure: (§1) The protein expression levels in NSCLC cells were assessed through Western blot analysis. A549, H23, and H292 cells were seeded at a density of 4 × 10^5 cells per well in 6-well cell culture plates. These cells were subjected to treatments with DH_32 at concentrations of 0, 25, 50, and 100 nM for 24 h at 37 °C.
(§2) Following treatment, the cells were collected using cold PBS and incubated on ice with a lysis buffer. The lysis buffer contained 50 mM 4-(2-hydroxyethyl)-1-piperazineethanesulfonic acid (pH 7.5), 150 mM NaCl, 5 mM EDTA, 1% Triton X-100, 1 mM phenylmethylsufonyl fluoride, and 2 μg/mL pepstatin A (cat no: 9803, Cell Signaling), along with complete protease inhibitor cocktail tablets provided in EASYpack (Roche, cat no: 04693116001). The incubation occurred for 40 min on ice, followed by centrifugation at 12,000× g at 4 °C for 15 min. Cell lysates were collected, and the protein content was quantified using the bicinchoninic acid (BCA) protein kit from Thermo-Fisher Scientific, Rockford, IL, USA. The sample was denatured by heating at 95 °C for 5 min with a sample buffer. The protein was loaded onto a 10% sodium dodecyl sulfate polyacrylamide gel electrophoresis (SDS-PAGE). Following gel separation, the proteins were transferred onto a nitrocellulose membrane with a pore size of 0.45 μm. The membranes were incubated with 5% nonfat dry milk in TBST (25 mm Tris-HCl, pH 7.4, 125 mm NaCl, and 0.05% Tween 20) for 1 h 30 min. Following this, the membrane was exposed to primary antibodies (Cell Signaling) including rabbit PARP, BcL2, Bax, CD133, CD44, OCT4, ALDH1A1, and β-catenin, and incubated at 4 °C overnight. Rabbit β-actin served as the control for loading normalization. The primary antibodies were diluted to 1:1000 in 5% w/v BSA in TBST. The membranes were washed with TBST and were then exposed to horseradish-peroxidase (HRP)-conjugated isotype-specific secondary antibodies, as well as anti-rabbit and anti-mouse IgG (1:2000 in 5% w/v skim milk in TBST), for 1 h at RT. Membranes were washed again with TBST. A chemiluminescent substrate (Supersignal West Pico; Pierce, Rockford, IL, USA) was applied to detect complex reactivity, and the signal intensity was quantified through densitometry. Protein intensity was analyzed by using ImageJ software (Image J 1.52a, Rasband, W., National Institutes of Health, Bethesda, MD, USA). RT acted as the positive control for this experiment.

A549 cells [2] = assay: as above
Procedure: as §1, §2

H23 cells [3] = assay: as above
Procedure: as §1, §2

H292 cells [4] = assay: RT-qPCR of stemness transcription factors; details: H292, 6 h
Procedure: (§3) RNA extraction was performed on DH_32-treated cells (3 × 10^5 cells per well in 6-well plates) using GENEzol as the reagent. Total RNA was used to synthesize cDNA through the application of SuperScript III reverse transcriptase from Invitrogen. Following cDNA synthesis, 100 ng of the cDNA was utilized for RT-qPCR, employing Luna Universal qPCR Master Mix from NEB, UK, in a final volume of 20 µL. The reaction mixture was conducted using the CFX 96 real-time PCR system from Bio-Rad, located in Hercules, CA. For the RT-qPCR, the protocol included an initial denaturation step at 95 °C for 1 min, followed by 45 cycles involving denaturation at 95 °C for 10 s, annealing and extension at 60 °C for 30 s. Melting curve analysis was employed to assess the specificity of the primers. The targeted primer genes were: The gene expression levels were normalized using the GAPDH gene as an internal control. The relative mRNA gene expression level for each gene was determined based on the comparative Cq values. RT acted as the positive control for this experiment.

A549 cells [5] = assay: RT-qPCR of stemness transcription factors; details: A549, 50 nM, 6 h, normalized to GAPDH
Procedure: as §3

H23 cells [6] = assay: RT-qPCR of stemness transcription factors; details: H23, 6 h
Procedure: as §3

`COC1=C(C)C(=O)C2=C(C1=O)[C@@H]1CN(Cc3ccc4ccccc4c3)[C@@H](C#N)[C@H](C2)N1C` [DH_32, (1R,4R,5S)-9-methoxy-8,11-dimethyl-3-(naphthalen-2-ylmethyl)-7,10-dioxo-1,2,3,4,5,6,7,10-octahydro-1,5-epiminobenzo[d]azocine-4-carbonitrile] was tested, and the “anti-apoptotic Bcl-2 protein level” value (H292 cells [1]; H292, 0–100 nM, 24 h) was “significant reduction in a dose-dependent manner”, the “cleaved PARP level” value (H292 cells [1]; H292, 50 nM, 24 h) was “substantial increase” and the “pro-apoptotic protein Bax level” value (H292 cells [1]; H292, 24 h) was “remained unaltered”. The “anti-apoptotic Bcl-2 protein level” value (A549 cells [2]; A549, 0–100 nM, 24 h) was “significant reduction in a dose-dependent manner”, the “cleaved PARP level” value (A549 cells [2]; A549, 50 nM, 24 h, compared to the RT treatment) was “six-fold increase” and the “pro-apoptotic protein Bax level” value (A549 cells [2]; A549, 24 h, compared to the parent compound) was “two-fold increase”. For the same molecule, the “anti-apoptotic Bcl-2 protein level” value (H23 cells [3]; H23, 0–100 nM, 24 h) was “significant reduction in a dose-dependent manner”, the “cleaved PARP level” value (H23 cells [3]; H23, 50 nM, 24 h) was “substantial increase” and the “pro-apoptotic protein Bax level” value (H23 cells [3]; H23, 24 h) was “remained unaltered”. The “mRNA of OCT4, NANOG, and SOX2” value (H292 cells [4]) was “significantly decreased”, the “mRNA expression level of NANOG” value (A549 cells [5]) was 0.4 fold and the “mRNA expression level of OCT4” value (A549 cells [5]) was 0.5 fold. The “mRNA expression level of SOX2” value (A549 cells [5]) was 0.3 fold and the “mRNA of OCT4, NANOG, and SOX2” value (H23 cells [6]) was “significantly decreased”.
